Biological target: T1, KCNJ3/KCNJ5^G151R (Homo sapiens, UniProt P48544, G151R)
T1 construct: GFP; expressed in transfected cells; host or cells: HEK293T (American Type Culture Collection), transient co-transfection
T1 sequence (P48544 1-419 G151R): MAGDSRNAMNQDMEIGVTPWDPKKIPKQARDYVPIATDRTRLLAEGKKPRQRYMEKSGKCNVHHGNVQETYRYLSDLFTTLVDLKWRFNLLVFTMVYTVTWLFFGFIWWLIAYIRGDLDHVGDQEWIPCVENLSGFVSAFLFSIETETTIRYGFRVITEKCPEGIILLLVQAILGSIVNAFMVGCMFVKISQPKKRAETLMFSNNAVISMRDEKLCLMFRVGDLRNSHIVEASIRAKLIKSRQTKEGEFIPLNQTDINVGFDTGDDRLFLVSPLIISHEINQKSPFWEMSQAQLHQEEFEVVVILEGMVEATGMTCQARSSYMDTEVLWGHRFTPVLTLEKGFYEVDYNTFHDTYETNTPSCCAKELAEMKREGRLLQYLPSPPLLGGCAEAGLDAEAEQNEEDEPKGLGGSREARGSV
T1 sequence (P48549 1-501 partner): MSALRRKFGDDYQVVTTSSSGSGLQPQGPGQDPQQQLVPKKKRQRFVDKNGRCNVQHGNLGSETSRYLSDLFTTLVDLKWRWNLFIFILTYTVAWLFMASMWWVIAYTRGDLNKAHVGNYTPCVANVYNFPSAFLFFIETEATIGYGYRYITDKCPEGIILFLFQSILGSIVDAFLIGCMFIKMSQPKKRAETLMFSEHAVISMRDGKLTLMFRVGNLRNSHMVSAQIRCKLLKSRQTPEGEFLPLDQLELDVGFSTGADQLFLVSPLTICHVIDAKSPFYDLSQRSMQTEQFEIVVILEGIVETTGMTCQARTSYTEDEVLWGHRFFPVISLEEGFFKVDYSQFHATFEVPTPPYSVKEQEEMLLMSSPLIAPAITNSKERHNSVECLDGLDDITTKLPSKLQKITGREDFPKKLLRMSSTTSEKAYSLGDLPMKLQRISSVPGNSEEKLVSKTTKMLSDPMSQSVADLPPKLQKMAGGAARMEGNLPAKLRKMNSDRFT
Test: Perforated whole-cell patch clamp, KCNJ3/KCNJ5^G151R heterotetramers in HEK293T cells
Assay type: cell-based
Description: HEK293T cells (American Type Culture Collection) were used for transient expression of GFP-tagged KCNJ5 or KCNJ3. The cells were grown in Dulbecco's modified Eagle medium (DMEM; Invitrogen) supplemented with 10% FBS (Invitrogen) in 5% CO2 and 95% air at 37° C. Cells were grown to 50-70% confluence for transfection, and the corresponding cDNAs (Choi et al., 2011, Science 331:768-772) were simultaneously applied to the cells using TurboFect transfection reagent according to the manufacturer's protocol (Fermentas). […]
Within 24 hr after transfection, the cells were treated with trypsin-containing medium (TrypLE Express) (Gibco) for 10 minutes to detach the cells. […] Fluorescence signal (an indication of positive transfection) was detected with an intensified video imaging system including a SIT 68 camera (Long Island Industries). […] After forming a high resistance seal (>2 GΩ), the membrane capacitance was monitored until the whole-cell patch configuration was formed. The cell membrane capacitance was measured and compensated. The K/cation currents were measured from −80 mV to 20 mV with 20 mV steps by an Axon 200A patch-clamp amplifier. The currents were low-pass filtered at 1 KHz and digitized by an Axon interface (Digidata 1200) and were analyzed using the pClamp software system 9 (Axon). […]

Compound	inhibition of KCNJ3/KCNJ5^G151R currents (20 μM, 10 minutes after addition)	inhibition of mutant KCNJ5 in electrophysiological studies (10 μM, heterotetramers of KCNJ3 and mutant or WT KCNJ5 (FIG. 13))
CC[C@H]1OC(=O)[C@H](C)[C@@H](O[C@H]2C[C@@](C)(OC)[C@@H](O)[C@H](C)O2)[C@H](C)[C@@H](O[C@@H]2O[C@H](C)C[C@H](N(C)C)[C@H]2O)[C@](C)(O)C[C@@H](C)/C(=N\OCOCCOC)[C@H](C)[C@@H](O)[C@]1(C)O [Roxithromycin, roxithromycin]	almost complete inhibition	–
N-demethyl-N-isobutyl-8,9-anhydroerythromycin A 6,9-hemiacetal [PLUX37]	–	specific inhibition of mutant KCNJ5
